Among the data in patent US7829665B2 (priority 2005, dated 2010) are EC50 and IC50 values, retold here.

For assay [1], the system named is HCV sub-genomic replicon in GS4.3 cells (HuH-7 hepatoma cells). Put plainly: Quantitation by ELISA of Neomycin phosphotransferase II (NPTII) in the HCV sub-genomic replicon, GS4.3. The assay is classed as cell-based, hepatitis C virus. Conditions: Hepatitis C virus, Huh-7; GS4.3 cells, 72 h incubation, NPTII ELISA; read-out: Replicon EC50. The procedure, abridged: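 HuH-7 GS4.3 cells carrying HCV sub-genomic replicon 1377/NS3-3′, treated 72 h at 37 °C without G418 with 3-fold dilutions from 10 μM to 56 pM (1% DMSO). NPTII in cell lysates measured by direct ELISA with TMB readout at 450 nm. EC50 from 4-parameter fit of percent DMSO-control signal.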
On the technique in general: An ELISA detects its analyte on a solid surface through an enzyme-linked reagent.

Assay [2] deals with T1, full-length NS3/NS4A-2 (HCV NS3 protease) (Hepatitis C virus genotype 1a, UniProt P27958).
T1 construct: Recombinant E. coli or Baculovirus full-length NS3 was diluted to 3.33 μM with assay buffer; made in house; host or cells: E. coli or baculovirus (BV) expression system
T1 sequence (P27958 1027-1657): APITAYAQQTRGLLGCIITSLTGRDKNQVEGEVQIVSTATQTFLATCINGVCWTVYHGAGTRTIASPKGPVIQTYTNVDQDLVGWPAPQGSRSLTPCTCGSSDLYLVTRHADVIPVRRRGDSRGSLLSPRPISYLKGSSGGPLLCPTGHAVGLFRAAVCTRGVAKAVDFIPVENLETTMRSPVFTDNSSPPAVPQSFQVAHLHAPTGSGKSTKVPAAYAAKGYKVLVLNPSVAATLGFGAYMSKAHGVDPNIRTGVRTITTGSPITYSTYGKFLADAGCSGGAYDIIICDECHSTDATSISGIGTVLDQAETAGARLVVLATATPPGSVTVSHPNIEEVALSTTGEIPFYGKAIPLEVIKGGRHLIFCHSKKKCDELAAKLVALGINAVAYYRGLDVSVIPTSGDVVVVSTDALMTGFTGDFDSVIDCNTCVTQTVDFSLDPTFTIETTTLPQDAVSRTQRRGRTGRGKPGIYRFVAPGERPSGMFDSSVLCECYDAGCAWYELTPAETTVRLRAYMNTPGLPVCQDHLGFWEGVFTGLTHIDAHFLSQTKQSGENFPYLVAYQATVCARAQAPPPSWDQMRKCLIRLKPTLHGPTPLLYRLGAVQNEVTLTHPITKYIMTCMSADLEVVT
Put plainly: NS3-NS4 protease assay / NS3 inhibition assay (RETS1 substrate, fluorescence kinetic read). The assay is classed as biochemical. Summed up: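 Full-length NS3 from E. coli (2 nM in assay) or baculovirus (3 nM) was precomplexed with excess NS4A-2 peptide, then preincubated 10 min at room temperature with serially diluted compounds starting at 50 microM. Reaction was started with RETS1 substrate at 8 μM before addition and read kinetically for 30 min (ex 335/em 495 nm). Four-parameter IC50s were converted to Ki by Cheng-Prusoff using Km 2.03 μM (E. coli) or 1.74 μM (BV).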

The mark [3] stands for this setting: recombinant E. coli or Baculovirus full-length NS3 with NS4A-2, read-out: NS3-NS4 IC50.

Read-outs that look alike come from different tables or passages of the source.

On to `O=C1N[C@]2(C(=O)NS(=O)(=O)C3CC3)C[C@H]2/C=C\CCCCC[C@H](Nc2c(N3CCCCC3)c(=O)c2=O)C(=O)N2C[C@H](OC(=O)N3Cc4cccc(F)c4C3)C[C@@H]12` [Compound 198], for which the EC50 in assay [1] was less than 1000 nM. Besides, the IC50 in assay [2] (setting [3]) was less than 100 nM.
The matching figures for `CCN(C)S(=O)(=O)NC(=O)[C@@]12C[C@H]1/C=C\CCCCC[C@H](NC(=O)OC(C)(C)C)C(=O)N1C[C@H](OC(=O)N3Cc4ccccc4C3)C[C@H]1C(=O)N2` [Compound 200]: less than 100 nM and less than 100 nM.
The matching figures for `CC(C)N(C)S(=O)(=O)NC(=O)[C@@]12C[C@H]1/C=C\CCCCC[C@H](NC(=O)OC(C)(C)C)C(=O)N1C[C@H](OC(=O)N3Cc4ccccc4C3)C[C@H]1C(=O)N2` [Compound 201]: less than 100 nM and less than 100 nM.
The matching figures for `CN(C)S(=O)(=O)NC(=O)[C@@]12C[C@H]1/C=C\CCCCC[C@H](N)C(=O)N1C[C@H](OC(=O)N3Cc4ccccc4C3)C[C@H]1C(=O)N2` [Compound 202]: less than 10000 nM and less than 100 nM.
`[2H]C([2H])([2H])N(C([2H])([2H])[2H])S(=O)(=O)NC(=O)[C@@]12C[C@H]1/C=C\CCCCC[C@H](NC(=O)OC(C)(C)C)C(=O)N1C[C@H](OC(=O)N3Cc4ccccc4C3)C[C@H]1C(=O)N2` [Compound 204]: the EC50 in assay [1] is less than 100 nM. Moreover, the IC50 in assay [2] (setting [3]) was less than 100 nM.
Regarding `O=C(N[C@H]1CCCCC/C=C\[C@@H]2C[C@@]2(C(=O)NS(=O)(=O)NCC2CC2)NC(=O)[C@@H]2C[C@@H](OC(=O)N3Cc4cccc(F)c4C3)CN2C1=O)OC1CCCC1` [Compound 205], the EC50 in assay [1] is less than 1000 nM. The IC50 in assay [2] (setting [3]) was less than 100 nM.
The matching figures for `CN(C)S(=O)(=O)NC(=O)[C@@]12C[C@H]1/C=C\CCCCC[C@H](NC(=O)OC(C)(C)C)C(=O)N1C[C@H](OC(=O)N3Cc4c(Cl)ccc(Cl)c4C3)C[C@H]1C(=O)N2` [Compound 206]: less than 100 nM and less than 100 nM.
The matching figures for `CC(C)(C)OC(=O)N[C@H]1CCCCC/C=C\[C@@H]2C[C@@]2(C(=O)NS(=O)(=O)N2CCOCC2)NC(=O)[C@@H]2C[C@@H](OC(=O)N3Cc4cccc(Cl)c4C3)CN2C1=O` [Compound 207]: less than 100 nM and less than 100 nM.
The corresponding values for `COc1cc2c(cc1OC)CN(C(=O)O[C@@H]1C[C@H]3C(=O)N[C@]4(C(=O)NS(=O)(=O)N5CCOCC5)C[C@H]4/C=C\CCCCC[C@H](NC(=O)OC(C)(C)C)C(=O)N3C1)CC2` [Compound 208] are less than 10000 nM and less than 100 nM.
Take `CC(C)(C)OC(=O)N[C@H]1CCCCC/C=C\[C@@H]2C[C@@]2(C(=O)NS(=O)(=O)N2CCOCC2)NC(=O)[C@@H]2C[C@@H](OC(=O)N3Cc4cccc(F)c4C3)CN2C1=O` [Compound 209]: in assay [1], the EC50 is less than 100 nM. Moreover, the IC50 in assay [2] (setting [3]) is less than 100 nM.
`CN(Cc1ccccc1)S(=O)(=O)NC(=O)[C@@]12C[C@H]1/C=C\CCCCC[C@H](NC(=O)OC(C)(C)C)C(=O)N1C[C@H](OC(=O)N3Cc4cccc(F)c4C3)C[C@H]1C(=O)N2` [Compound 210]: the EC50 in assay [1] was less than 100 nM. For the same compound, the IC50 in assay [2] (setting [3]) is less than 100 nM.
As for `CC(C)(C)OC(=O)N[C@H]1CCCCC/C=C\[C@@H]2C[C@@]2(C(=O)NS(=O)(=O)N2CCC(F)(F)C2)NC(=O)[C@@H]2C[C@@H](OC(=O)N3Cc4cccc(Cl)c4C3)CN2C1=O` [Compound 211], the EC50 in assay [1] was less than 100 nM. For the same compound, in assay [2] (setting [3]), the IC50 was less than 100 nM.
Take `CC(C)(C)OC(=O)N[C@H]1CCCCC/C=C\[C@@H]2C[C@@]2(C(=O)NS(=O)(=O)NC2CCCC2)NC(=O)[C@@H]2C[C@@H](OC(=O)N3Cc4cccc(Cl)c4C3)CN2C1=O` [Compound 212]: in assay [1], the EC50 was less than 1000 nM. Besides, in assay [2] (setting [3]), the IC50 was less than 100 nM.
The matching figures for `CC(C)(C)OC(=O)N[C@H]1CCCCC/C=C\[C@@H]2C[C@@]2(C(=O)NS(=O)(=O)NC2CC2)NC(=O)[C@@H]2C[C@@H](OC(=O)N3Cc4cccc(Cl)c4C3)CN2C1=O` [Compound 213]: less than 100 nM and less than 100 nM.
The corresponding values for `CC(C)(C)OC(=O)N[C@H]1CCCCC/C=C\[C@@H]2C[C@@]2(C(=O)NS(=O)(=O)N2CCCC2)NC(=O)[C@@H]2C[C@@H](OC(=O)N3Cc4cccc(Cl)c4C3)CN2C1=O` [Compound 214] are less than 100 nM and less than 100 nM.
The corresponding values for `CN(C)S(=O)(=O)NC(=O)[C@@]12C[C@H]1/C=C\CCCCC[C@H](NC(=O)OC1CCCC1)C(=O)N1C[C@H](OC(=O)N3Cc4cccc(F)c4C3)C[C@H]1C(=O)N2` [Compound 215] are less than 100 nM and less than 100 nM.
For the compound `O=C(N[C@H]1CCCCC/C=C\[C@@H]2C[C@@]2(C(=O)NS(=O)(=O)N2CCCC2)NC(=O)[C@@H]2C[C@@H](OC(=O)N3Cc4cccc(F)c4C3)CN2C1=O)OC1CCCC1` [Compound 216], the EC50 in assay [1] is less than 100 nM. For the same compound, the IC50 in assay [2] (setting [3]) is less than 100 nM.
On to `O=C(N[C@H]1CCCCC/C=C\[C@@H]2C[C@@]2(C(=O)NS(=O)(=O)N2CCC2)NC(=O)[C@@H]2C[C@@H](OC(=O)N3Cc4cccc(F)c4C3)CN2C1=O)OC1CCCC1` [Compound 217], for which the EC50 in assay [1] was less than 100 nM. The IC50 in assay [2] (setting [3]) is less than 100 nM.
As to `CC(C)NS(=O)(=O)NC(=O)[C@@]12C[C@H]1/C=C\CCCCC[C@H](NC(=O)OC1CCCC1)C(=O)N1C[C@H](OC(=O)N3Cc4cccc(F)c4C3)C[C@H]1C(=O)N2` [Compound 218], the EC50 in assay [1] is less than 100 nM. For the same compound, in assay [2] (setting [3]), the IC50 was less than 100 nM.
As to `O=C(N[C@H]1CCCCC/C=C\[C@@H]2C[C@@]2(C(=O)NS(=O)(=O)Nc2ccc(Cl)cc2)NC(=O)[C@@H]2C[C@@H](OC(=O)N3Cc4cccc(F)c4C3)CN2C1=O)OC1CCCC1` [Compound 219], the EC50 in assay [1] is less than 10000 nM. Further, in assay [2] (setting [3]), the IC50 is less than 100 nM.
Consider `N[C@H]1CCCCC/C=C\[C@@H]2C[C@@]2(C(=O)NS(=O)(=O)N2CCCC2)NC(=O)[C@@H]2C[C@@H](OC(=O)N3Cc4cccc(Cl)c4C3)CN2C1=O` [Compound 220], for which, in assay [1], the EC50 was less than 1000 nM. The compound also gave an IC50 in assay [2] of less than 100 nM.
For `N[C@H]1CCCCC/C=C\[C@@H]2C[C@@]2(C(=O)NS(=O)(=O)NC2CCCC2)NC(=O)[C@@H]2C[C@@H](OC(=O)N3Cc4cccc(Cl)c4C3)CN2C1=O` [Compound 221], the EC50 in assay [1] is less than 10000 nM. Further, the IC50 in assay [2] (setting [3]) was less than 100 nM.
Regarding `N[C@H]1CCCCC/C=C\[C@@H]2C[C@@]2(C(=O)NS(=O)(=O)N2CCC(F)(F)C2)NC(=O)[C@@H]2C[C@@H](OC(=O)N3Cc4cccc(Cl)c4C3)CN2C1=O` [Compound 222], the EC50 in assay [1] is less than 10000 nM. Besides, in assay [2], the IC50 was less than 100 nM.
For the compound `O=C(N[C@H]1CCCCC/C=C\[C@@H]2C[C@@]2(C(=O)NS(=O)(=O)NCC(F)(F)F)NC(=O)[C@@H]2C[C@@H](OC(=O)N3Cc4cccc(F)c4C3)CN2C1=O)OC1CCCC1` [Compound 223], the EC50 in assay [1] was less than 1000 nM. For the same compound, the IC50 in assay [2] (setting [3]) is less than 100 nM.
The matching figures for `O=C(N[C@H]1CCCCC/C=C\[C@@H]2C[C@@]2(C(=O)NS(=O)(=O)N(CC(F)(F)F)CC(F)(F)F)NC(=O)[C@@H]2C[C@@H](OC(=O)N3Cc4cccc(F)c4C3)CN2C1=O)OC1CCCC1` [Compound 224]: less than 10000 nM and less than 1000 nM.
As for `O=C(N[C@H]1CCCCC/C=C\[C@@H]2C[C@@]2(C(=O)NS(=O)(=O)N2CCC(F)(F)C2)NC(=O)[C@@H]2C[C@@H](OC(=O)N3Cc4cccc(F)c4C3)CN2C1=O)OC1CCCC1` [Compound 225], in assay [1], the EC50 is less than 100 nM. Moreover, in assay [2] (setting [3]), the IC50 is less than 100 nM.
`O=C(N[C@H]1CCCCC/C=C\[C@@H]2C[C@@]2(C(=O)NS(=O)(=O)N2CCC(F)(F)C2)NC(=O)C2C[C@@H](OC(=O)N3Cc4ccccc4C3)CN2C1=O)OC1CCCC1` (stereo partly drawn) [Compound 227]: in assay [1], the EC50 was less than 100 nM. Further, the IC50 in assay [2] (setting [3]) was less than 100 nM.
Turning to `O=C(N[C@H]1CCCCC/C=C\[C@@H]2C[C@@]2(C(=O)NS(=O)(=O)N2CC(F)(F)C2)NC(=O)C2C[C@@H](OC(=O)N3Cc4cccc(Cl)c4C3)CN2C1=O)OC1CCCC1` (stereo partly drawn) [Compound 228], the EC50 in assay [1] is less than 100 nM. Further, the IC50 in assay [2] (setting [3]) is less than 100 nM.
Regarding `O=C(N[C@H]1CCCCC/C=C\[C@@H]2C[C@@]2(C(=O)NS(=O)(=O)N2CC(F)(F)C2)NC(=O)C2C[C@@H](OC(=O)N3Cc4cccc(F)c4C3)CN2C1=O)OC1CCCC1` (stereo partly drawn) [Compound 229], the EC50 in assay [1] was less than 1000 nM. For the same compound, the IC50 in assay [2] (setting [3]) was less than 100 nM.
The corresponding values for `O=C(N[C@H]1CCCCC/C=C\[C@@H]2C[C@@]2(C(=O)NS(=O)(=O)N2CC(F)(F)C2)NC(=O)C2C[C@@H](OC(=O)N3Cc4ccccc4C3)CN2C1=O)OC1CCCC1` (stereo partly drawn) [Compound 230] are less than 1000 nM and less than 100 nM.
The corresponding values for `O=C(N[C@H]1CCCCC/C=C\[C@@H]2C[C@@]2(C(=O)NS(=O)(=O)NC2CC2)NC(=O)[C@@H]2C[C@@H](OC(=O)N3CCc4ccccc4C3)CN2C1=O)OC1CCCC1` [Compound 231] are less than 100 nM and less than 100 nM.
The matching figures for `O=C(N[C@H]1CCCCC/C=C\[C@@H]2C[C@@]2(C(=O)NS(=O)(=O)N2CCC2)NC(=O)[C@@H]2C[C@@H](OC(=O)N3CCc4ccccc4C3)CN2C1=O)OC1CCCC1` [Compound 233]: less than 100 nM and less than 100 nM.
`CC(C)(C)OC(=O)N[C@H]1CCCCC/C=C\[C@@H]2C[C@@]2(C(=O)NC(=O)N2CCOCC2)NC(=O)[C@@H]2C[C@@H](OC(=O)N3Cc4cccc(F)c4C3)CN2C1=O` [Compound 234]: in assay [1], the EC50 was less than 100 nM. Also, the IC50 in assay [2] (setting [3]) is less than 100 nM.

As usually defined, the EC50 is the concentration at which the effect is half-maximal. For orientation: IC50 means the point on the concentration scale where inhibition reaches its midpoint.
